Read-outs that look alike come from different tables or passages of the source.
Target: recombinant human GPR52 (Homo sapiens, UniProt Q9Y2T5)
Assay: HTRF cAMP assay, GPR52 activity (Example A)
Assay type: cell-based
Description: Compounds of Formula I were assessed for their ability to modulate GPR52 activity. HTRF CAMP assays were performed using a commercially available assay kit (CAMP Gs HiRange HTRF®, CisBio). Controls and compounds were solubilized in DMSO and 62.5 nanoliters of the diluted compounds were transferred into 384-well NBS assay plates via acoustic or precision low-volume dispensing. Compounds were further diluted to 1× with the addition of 20,000 cells per well. Flp-In™—CHO cells that stably express recombinant human GPR52 were used in the assay.
Cells were harvested with cell stripper and resuspended in stimulation buffer. After thirty minutes incubation at room temperature, detection reagents were added to each well. Plates were then incubated for an additional 30 minutes at room temperature. CAMP produced by the cells during the first incubation period competes with d2-labeled CAMP for binding to an anti-cAMP monoclonal antibody labeled with europium cryptate. The measured signal was inversely proportional to the concentration of cAMP produced by the cells and this signal was quantified using a PHERAstar® multi-mode plate reader.
Dose-response curves were generated from the HTRF counts that have been transformed based on a CAMP referenced curve, and then normalized to the positive control. EC50 values were obtained using a nonlinear regression curve-fitting program. […] The Emax (Table 13) is the maximum amount of cAMP (nM) produced by incubation of the cells with 10 μM or 31.6 μM of a test compound. The compound is defined by the top plateau of the sigmoid curve fit. The curve is then normalized to a control compound, in this case 4-(3-(3-fluoro-5-(trifluoromethyl)benzyl)-5-methyl-4,5-dihydro-1H-1,2,4-triazol-1-yl)-2-methylbenzamide (Tokumaru, K., et al., “Design, synthesis, and pharmacological evaluation of 4-azolyl-benzamide derivatives as novel GPR52 agonists”, Bioorganic & Medicinal Chemistry, Volume 25, Issue 12, June 2017, pages 3098-3115), and expressed as a percentage of the Emax of that control compound.

[1] = average EC50 (n=1 to 15), Flp-In-CHO cells stably expressing recombinant human GPR52, cAMP HTRF, read-out: EC50 (N=)
[2] = maximum cAMP at 10 μM or 31.6 μM test compound, as percentage of Emax of control compound 4-(3-(3-fluoro-5-(trifluoromethyl)benzyl)-5-methyl-4,5-dihydro-1H-1,2,4-triazol-1-yl)-2-methylbenzamide
[3] = Flp-In-CHO cells expressing human GPR52, read-out: average EC50
[4] = percentage of Emax of control compound

recombinant human GPR52, sequence (Q9Y2T5 whole entry): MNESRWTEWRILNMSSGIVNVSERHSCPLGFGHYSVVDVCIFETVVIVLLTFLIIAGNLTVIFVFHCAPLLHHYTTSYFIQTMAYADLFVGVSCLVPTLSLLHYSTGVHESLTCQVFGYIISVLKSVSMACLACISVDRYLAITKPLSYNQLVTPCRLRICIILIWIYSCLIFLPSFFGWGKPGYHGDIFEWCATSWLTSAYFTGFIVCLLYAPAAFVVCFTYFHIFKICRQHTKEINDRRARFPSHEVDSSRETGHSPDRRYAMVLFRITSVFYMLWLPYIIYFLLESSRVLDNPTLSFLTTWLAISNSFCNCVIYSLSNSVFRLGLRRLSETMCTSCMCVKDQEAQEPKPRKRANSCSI

Row | Structure (SMILES) | EC50 [1] | Emax [2] | other results
1 | Cc1cc(-c2cc(Oc3ccc4c(F)nn(C)c4c3)ccn2)ccc1C(N)=O [Example 128, 4-(4-((3-fluoro-1-methyl-1H-indazol-6-yl)oxy)pyridin-2-yl)-2-methylbenzamide] | 25 to 100 nM | 118% | 
2 | CCc1cc(-c2cc(Oc3cnc4c(C)nn(C)c4c3)ccn2)ccc1C(N)=O [Example 1, 4-(4-((1,3-dimethyl-1H-pyrazolo[4,3-b]pyridin-6-yl)oxy)pyridin-2-yl)-2-ethylbenzamide] | 101 to 1000 nM | 106% | EC50 [3]: 270 nM; Emax [4]: 106%
3 | CCc1cc(-c2cc(Oc3ccc4cnn(C)c4c3)cc(N)n2)ccc1C(N)=O [Example 18, 4-(6-amino-4-((1-methyl-1H-indazol-6-yl)oxy)pyridin-2-yl)-2-ethylbenzamide] | 101 to 1000 nM | 107% | 
4 | NC(=O)c1ccc(-c2cc(Oc3ccc4ccncc4c3)ccn2)cc1Cl [Example 80, 2-chloro-4-(4-(isoquinolin-7-yloxy)pyridin-2-yl)benzamide] | 101 to 1000 nM | 54% | 
5 | Cc1cc(-c2cc(Oc3cc(F)c4cnn(C)c4c3)ccn2)ccc1C(N)=O [Example 39, 4-(4-((4-fluoro-1-methyl-1H-indazol-6-yl)oxy)pyridin-2-yl)-2-methylbenzamide] | 25 to 100 nM | 104% | 
6 | Cc1cnc2ccc(Oc3ccnc(-c4ccc(C(N)=O)c(C)c4)c3)cc2c1 [Example 108, 2-methyl-4-(4-((3-methylquinolin-6-yl)oxy)pyridin-2-yl)benzamide] | 101 to 1000 nM | 150% | 
7 | CCc1cc(-c2cc(Oc3cc(C)c4cnn(C)c4c3)ccn2)ccc1C(N)=O [Example 46, 4-(4-((1,4-dimethyl-1H-indazol-6-yl)oxy)pyridin-2-yl)-2-ethylbenzamide] | 101 to 1000 nM | 63% | 
8 | Cc1cc(-c2cc(Oc3ccc4ncn(C)c4c3)ccn2)ccc1C(N)=O [Example 8, 2-methyl-4-(4-((1-methyl-1H-benzo[d]imidazol-6-yl)oxy)pyridin-2-yl)benzamide] | 1000 to 2000 nM | 68% | 
9 | Cc1cc(-c2cccc(Oc3cnc4c(C)nn(C)c4c3)c2)ccc1C(N)=O [Example 31, 3′-((1,3-dimethyl-1H-pyrazolo[4,3-b]pyridin-6-yl)oxy)-3-methyl-[1,1′-biphenyl]-4-carboxamide] | 101 to 1000 nM | 88% | 
10 | CCc1cc(-c2cc(Oc3cnc4c(C(F)(F)F)cccc4c3)ccn2)ccc1C(N)=O [Example 109, 2-ethyl-4-(4-((8-(trifluoromethyl)quinolin-3-yl)oxy)pyridin-2-yl)benzamide] | 101 to 1000 nM | 75% | 
11 | Cc1cc(-c2cccc(Oc3ccc4cnn(C)c4c3)c2)ccc1C(N)=O [Example 51, 3-methyl-3′-((1-methyl-1H-indazol-6-yl)oxy)-[1,1′-biphenyl]-4-carboxamide] | 1000 to 2000 nM | 96% | 
12 | CCc1cc(-c2cc(Oc3cnc4c(C(F)(F)F)nn(C)c4c3)ccn2)ccc1C(=O)NC [Example 61, 2-ethyl-N-methyl-4-(4-((1-methyl-3-(trifluoromethyl)-1H-pyrazolo[4,3-b]pyridin-6-yl)oxy)pyridin-2-yl)benzamide] | 101 to 1000 nM | 81% | 
13 | CCc1cc(-c2cc(Oc3cc(F)c4ncccc4c3)ccn2)ccc1C(N)=O [Example 97, 2-ethyl-4-(4-((8-fluoroquinolin-6-yl)oxy)pyridin-2-yl)benzamide] | 101 to 1000 nM | 132% | 
14 | NC(=O)c1ccc(-c2cc(Oc3ccc4ncccc4c3)ccn2)cc1C(F)(F)F [Example 75, 4-(4-(quinolin-6-yloxy)pyridin-2-yl)-2-(trifluoromethyl)benzamide] | 101 to 1000 nM | 101% | 
15 | Cc1cc(-c2ccnc(Oc3ccc4c(c3)c(C)nn4C)c2)ccc1C(N)=O |  |  | EC50 (comparison of position of the nitrogen in the pyridine ring relative to the oxygen linker, read-out: Activity EC50): 2040 nM
16 | CCc1cc(-c2cc(Oc3cc(F)c4ncc(F)cc4c3)ccn2)ccc1C(N)=O [Example 120, 4-(4-((3,8-difluoroquinolin-6-yl)oxy)pyridin-2-yl)-2-ethylbenzamide] | 101 to 1000 nM | 155% | 
17 | CCc1cc(-c2cc(Oc3ccc4ncccc4c3F)ccn2)ccc1C(N)=O [Example 106, 2-ethyl-4-(4-((5-fluoroquinolin-6-yl)oxy)pyridin-2-yl)benzamide] | 101 to 1000 nM | 100% | 
18 | Cc1cc(-c2cc(Oc3ccc4occc4c3)ccn2)ccc1C(N)=O [Example 83, 4-(4-(benzofuran-5-yloxy)pyridin-2-yl)-2-methylbenzamide] | 101 to 1000 nM | 153% | 
19 | Cc1cc(-c2cc(Oc3cnc4cc(F)c(F)cc4c3)ccn2)ccc1C(N)=O [Example 114, 4-(4-((6,7-difluoroquinolin-3-yl)oxy)pyridin-2-yl)-2-methylbenzamide] | 25 to 100 nM | 50% | 

Continued, in another order:

Row | EC50 [1] | Emax [2] | Structure (SMILES) | other results
20 | 25 to 100 nM | 105% | CCc1cc(-c2cc(Oc3ccc4c(C)nn(C)c4c3)ccn2)ccc1C(N)=O [Example 53, 4-(4-((1,3-dimethyl-1H-indazol-6-yl)oxy)pyridin-2-yl)-2-ethylbenzamide] | 
21 | 101 to 1000 nM | 95% | CCc1cc(-c2cc(Oc3cnc4cc(F)c(F)cc4c3)ccn2)ccc1C(N)=O [Example 113, 4-(4-((6,7-difluoroquinolin-3-yl)oxy)pyridin-2-yl)-2-ethylbenzamide] | 
22 | 1000 to 2000 nM | 107% | Cc1cc(-c2cc(Oc3cccc4occc34)ccn2)ccc1C(N)=O [Example 90, 4-(4-(benzofuran-4-yloxy)pyridin-2-yl)-2-methylbenzamide] | 
23 | 101 to 1000 nM | 90% | CCc1cc(-c2cc(Oc3cnc4c(F)cccc4c3)ccn2)ccc1C(N)=O [Example 102, 2-ethyl-4-(4-((8-fluoroquinolin-3-yl)oxy)pyridin-2-yl)benzamide] | 
24 | 101 to 1000 nM | 103% | Cc1cc(-c2cc(Oc3cnc4cnn(C)c4c3)ccn2)ccc1C(N)=O [Example 12, 2-methyl-4-(4-((1-methyl-1H-pyrazolo[4,3-b]pyridin-6-yl)oxy)pyridin-2-yl)benzamide] | 
25 | 25 to 100 nM |  | Cc1cc(-c2cc(Oc3ccc4c(C)nn(C)c4c3)ccn2)ccc1C(N)=O [Example 4, 4-(4-((1,3-dimethyl-1H-indazol-6-yl)oxy)pyridin-2-yl)-2-methylbenzamide] | EC50 [3]: 83 nM; Emax (%) [2]: 103%; Emax [4]: 106%
26 | 101 to 1000 nM | 125% | CCc1cc(-c2cc(Oc3ccc4cn[nH]c4c3)ccn2)ccc1C(N)=O [Example 41, 4-(4-((1H-indazol-6-yl)oxy)pyridin-2-yl)-2-ethylbenzamide] | 
27 | 101 to 1000 nM | 86% | Cc1nc2cc(Oc3ccnc(-c4ccc(C(N)=O)c(C)c4)c3)ccc2s1 [Example 86, 2-methyl-4-(4-((2-methylbenzo[d]thiazol-5-yl)oxy)pyridin-2-yl)benzamide] | 
28 | 101 to 1000 nM | 106% | Cc1cc(-c2cncc(Oc3ccc4nn(C)cc4c3)n2)ccc1C(N)=O [Example 10, 2-methyl-4-(6-((2-methyl-2H-indazol-5-yl)oxy)pyrazin-2-yl)benzamide] | 
29 | 101 to 1000 nM | 95% | Cc1cc(-c2cc(Oc3ccc4ncccc4c3)ccn2)ccc1C(N)=O [Example 74, 2-methyl-4-(4-(quinolin-6-yloxy)pyridin-2-yl)benzamide] | 
30 | 101 to 1000 nM | 51% | Cc1cc(-c2cc(Oc3cnc4ccc(F)cc4c3)ccn2)ccc1C(N)=O [Example 105, 4-(4-((6-fluoroquinolin-3-yl)oxy)pyridin-2-yl)-2-methylbenzamide] | 
31 | 101 to 1000 nM | 100% | CCc1cc(-c2cc(Oc3cnc4c(Cl)cccc4c3)ccn2)ccc1C(N)=O [Example 112, 4-(4-((8-chloroquinolin-3-yl)oxy)pyridin-2-yl)-2-ethylbenzamide] | 
32 | 101 to 1000 nM | 88% | Cc1cc(-c2cc(Oc3cnc4ccc(Cl)cc4c3)ccn2)ccc1C(N)=O [Example 111, 4-(4-((6-chloroquinolin-3-yl)oxy)pyridin-2-yl)-2-methylbenzamide] | 
33 | 25 to 100 nM | 104% | CCc1cc(-c2cc(Oc3cc(F)c4c(C)nn(C)c4c3)ccn2)ccc1C(N)=O [Example 38, 2-ethyl-4-(4-((4-fluoro-1,3-dimethyl-1H-indazol-6-yl)oxy)pyridin-2-yl)benzamide] | 
34 | 101 to 1000 nM | 118% | CCc1cc(-c2cc(Oc3ccc4c(C#N)nn(C)c4c3)ccn2)ccc1C(N)=O [Example 48, 4-(4-((3-cyano-1-methyl-1H-indazol-6-yl)oxy)pyridin-2-yl)-2-ethylbenzamide] | 

Source: patent publication US20260167615A1, “COMPOUNDS AND COMPOSITIONS AS GPR52 MODULATORS” (Neurocrine Biosciences, Inc., priority 2022, published 2026)
